Experimental data reported in patent publication US10344032B2, “Agents for treating neurogenic inflammation and neuropathic hyperalgesia related disorders” (PÉCSI TUDOMÁNYEGYETEM, priority 2014, dated 2019).

What was measured:
rat [1] = test: Partial sciatic nerve ligation (Seltzer operation) mechanical hyperalgesia (Randall-Selitto test); assay type: in vivo; conditions: 100 μg/kg p.o., 60 min; 7 days after partial sciatic nerve ligation; Randall-Sellitto test
Experimental: Wistar rats were anaesthetised with sodium-pentobarbital (Euthasol, 50 mg/kg i.p.). The common sciatic nerve was exposed unilaterally on the right side high in the thigh and ⅓-½ of the nerve trunk was carefully separated and tightly ligated using a siliconised silk suture (Ethicone 9-0). Then the wound was closed and the animals were allowed to survive for 7 days (Seltzer et al., 1990). During this period, signs of spontaneous pain (holding the legs in elevated position), mechanical hyperalgesia and allodynia developed.
Mechanonociceptive threshold of the hindpaws was measured with analgesimetry (Randall-Sellitto test) and touch sensitivity of the plantar surface with dynamic plantar aesthesiometry on the same animals. Hyperalgesia (decrease of the mechanonociceptive threshold) and allodynia (decrease of touch sensitivity) were expressed in % compared to the initial pre-operation control values. Significant decrease of the mechanonociceptive thresholds, as well as touch sensitivity thresholds developed 7 days after the surgery (Szolcsanyi et al. 2003; Sandor et al. 2006). […]
b) The mechanonociceptive thresholds of the hindpaw was measured with the Ugo Basile Analgesimeter (7210, Comerio, Italy; Randall-Selitto test). […] The threshold force which elicited withdrawal was read on an analog scale calibrated in grams. […]

[2] = system: sensory nerve terminals of isolated rat tracheae; test: Electrical field stimulation-induced release of CGRP from sensory nerve terminals of isolated rat tracheae; conditions: 500 nM; absolute release = stimulated + post-stimulated fractions minus basal release
Experimental: Rats were exsanguinated in deep anaesthesia (sodium thiopental, 50 mg/kg i.p.), then the whole trachea was removed and cleaned of fat and adhering connective tissues. Tracheae from two rats were placed into the same 1.8 ml organ bath to obtain sufficient amount of released peptide and perfused (1 ml/min) with pH—(7.2) controlled oxygenized Krebs solution for 60 minutes (equilibration period) at 37° C. temperature. After discontinuation of the flow, the solution was changed three times for 8 minutes to produce pre-stimulated, stimulated, post-stimulated fractions. Electrical field stimulation (40 V, 0.1 ms, 10 Hz for 120 s; 1200 pulses) was performed to elicit neurotransmitter release at the beginning of the second 8-minute period. […]
CGRP concentration was determined from 400-400 μl samples of the organ bath solutions by means of a selective and sensitive radioimmunoassay method developed in our laboratories and described in details in several previous papers (Nemeth et al. 1998, 1999, 2006; Helyes et al., 1997, 2001, 2006; Borzsei et al., 2008). The released amount of the peptides was calculated as fmol peptide per mg wet tissue (trachea). The absolute EFS-induced CGRP outflow in each experiment was calculated by taking off the basal release measured in the first (pre-stimulated) fraction from the second and third 8-min fractions and then adding these values. […]

rat [3] = test: Plantar incision-induced mechanical allodynia (dynamic plantar aesthesiometer), postoperative pain model; assay type: in vivo; conditions: 100 μg/kg p.o., measured 60 min later; one day after plantar incision; dynamic plantar aesthesiometry
Experimental: Rats were anaesthesized with sodium-pentobarbital (Euthasol, 40 mg/kg i.p.) and a 1 cm longitudinal incision was made through the skin, fascia and muscle of the plantar aspect of the hindpaw. Significant decrease of both the thermonociceptive and mechanonociceptive thresholds (heat and mechanical allodynia) of the paw develops 1 day after this procedure.
One hundred and forty five (145) female Wistar rats (150-250 g) kept in the Animal House of the University of Pecs in a temperature-controlled room provided with a 12-hour light-dark cycle, standard rat chow and water ad libitum were used in this experimental series. They were brought to the air-conditioned laboratory the day before the experiment started. Throughout the total study the same assistant handled all the animals. […] Touch sensitivity was measured with a dynamic plantar aesthesiometer (DPA) and the thermonociceptive threshold was determined with an increasing temperature water-bath (ITWB) on the same rats (see below). […] Test compounds were administered p.o. and post-dose touch sensitivity and thermonociceptive thresholds were measured 60 min later. […]
a) Touch sensitivity of the plantar surface of the paw was measured with the Ugo Basile Dynamic Plantar Aesthesiometer (DPA; 37400, Comerio, Italy), which is an electronic von Frey device. […]

rat [4] = test: Mustard oil-induced acute neurogenic inflammation in the paw skin of the rat (Evans blue leakage); assay type: in vivo; conditions: 100 μg/kg p.o. 60 min before 1% mustard oil; vs vehicle-treated control; listed as BST-1693
Experimental: Deep anaesthesia was performed with sodium-thiopental (50 mg/kg i.p.). Both hindlegs of the rats were acutely denervated (the sciatic and the saphenous nerves were cut 30 min before the induction of inflammation) to avoid the influence of reflex mechanisms. Inflammation in the dorsal skin of the hindpaws was evoked by topical application of 1% mustard oil dissolved in paraffin oil. This compound selectively activates capsaicin-sensitive peptidergic fibres through the TRPA1 ion channel, therefore induces acute inflammatory reaction with exclusively neurogenic mechanisms via the release of pro-inflammatory sensory neuropeptides, such as substance P and CGRP. Extravasation of plasma albumin was measured by the Evans blue leakage method (see FIG. 2). Evans blue (50 mg/kg) which binds to plasma albumine, was injected i.v. and neurogenic inflammation was induced 5 min later. […] The amount of the accumulated Evans blue, which quantitatively correlates with the intensity of plasma extravasation, was expressed as μg dye/g wet skin (Helyes et at, 1997, 2001, 2006; Borzsei et al., 2008). […]
Extravasation of plasma albumin in the dorsal skin of the hindpaws was measured by the Evans blue leakage method. […] The skin of the hindpaws was removed, their weight was measured and the extravasated dye was extracted with formamide at room temperature during 72 h for photometric determination at 620 nm. […]

Structure (SMILES): Cc1c(C)n(Cc2ccccc2)c2ncnc(NCCc3ccc(O)cc3)c12 [Example 4, 4-[2-(7-Benzyl-5,6-dimethyl-7H-pyrrolo[2,3-d]pyrimidin-4-ylamino)-ethyl]-phenol]
- reduction of mechanical hyperalgesia (rat [1]): 46%
- melting point: 198 to 199 °C

Structure (SMILES): Cc1c(C)n(Cc2ccccc2)c2ncnc(NCCc3cccc(Cl)c3)c12 [Example 39, (7-Benzyl-5,6-dimethyl-7H-pyrrolo[2,3-d]pyrimidin-4-yl)-[2-(3-chloro-phenyl)-ethyl]-amine]
- reduction of mechanical hyperalgesia (rat [1]): 31%
- melting point: 205 to 207 °C

Structure (SMILES): CC(=O)Nc1ccc(CCNc2ncnc3c2c(C)c(C)n3CCCN(C)C)cc1 [Example 51, N-(4-{2-[7-(3-Dimethylamino-propyl)-5,6-dimethyl-7H-pyrrolo[2,3-d]pyrimidin-4-ylamino]-ethyl}-phenyl)-acetamide]
- inhibition on the absolute CGRP release [2]: 79.55%
- decrease of mechanical allodynia (rat [3]): 63%
- melting point: 132.7 to 133.7 °C

Structure (SMILES): Cc1c(C)n(Cc2ccccc2)c2ncnc(NCCc3ccc(N)cc3)c12 [Example 1, [2-(4-Amino-phenyl)-ethyl]-(7-benzyl-5,6-dimethyl-7H-pyrrolo[2,3-d]pyrimidin-4-yl)-amine]
- inhibition of acute neurogenic inflammatory response (Evans blue accumulation in hindpaw skin) (rat [4]): 70.4%
- melting point: 150.7 to 151.8 °C
